This assay concerns the target T1, human GR (Homo sapiens, UniProt P04150).
T1 construct: expressed in transfected cells; host or cells: CV-1 cells (ATCC CCL-70), adenoviral transduction
T1 sequence (P04150 1-777): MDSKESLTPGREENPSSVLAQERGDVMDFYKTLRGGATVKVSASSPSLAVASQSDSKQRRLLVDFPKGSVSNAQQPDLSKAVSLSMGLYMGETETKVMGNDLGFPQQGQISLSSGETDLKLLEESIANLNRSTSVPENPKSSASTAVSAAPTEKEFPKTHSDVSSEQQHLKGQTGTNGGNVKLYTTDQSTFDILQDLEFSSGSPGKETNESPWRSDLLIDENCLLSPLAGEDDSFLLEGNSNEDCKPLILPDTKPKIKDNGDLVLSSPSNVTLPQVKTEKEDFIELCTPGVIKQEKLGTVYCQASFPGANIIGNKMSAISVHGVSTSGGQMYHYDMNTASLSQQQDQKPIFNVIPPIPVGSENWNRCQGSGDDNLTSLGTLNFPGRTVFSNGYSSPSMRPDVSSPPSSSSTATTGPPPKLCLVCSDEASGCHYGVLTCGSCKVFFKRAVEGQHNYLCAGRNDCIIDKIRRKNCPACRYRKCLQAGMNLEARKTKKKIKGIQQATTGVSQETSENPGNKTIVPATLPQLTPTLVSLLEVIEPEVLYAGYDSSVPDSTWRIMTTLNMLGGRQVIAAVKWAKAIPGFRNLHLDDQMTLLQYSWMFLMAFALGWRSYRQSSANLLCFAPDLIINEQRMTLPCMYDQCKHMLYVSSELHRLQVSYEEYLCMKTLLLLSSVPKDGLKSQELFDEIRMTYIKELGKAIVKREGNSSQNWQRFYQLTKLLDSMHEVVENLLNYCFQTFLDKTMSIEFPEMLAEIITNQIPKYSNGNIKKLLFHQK
Nature of the assay: GR transcriptional activation, CV-1 cells. It counts as cell-based. As to the method: HFPO-DA was assessed for agonism and antagonism of transcriptional activation for estrogen (ER), androgen (AR), and glucocorticoid receptors (GR). Method details for in vitro transactivation assays for ER ([Wilson et al. 2004a]), AR ([Hartig et al. 2002], [2007]), and GR ([Conley et al. 2017]; [Medlock Kakaley et al. 2018]) have been previously reported. Briefly, for ER activity we utilized the stably transfected T47D-KBluc cell line [publicly available via American Type Culture Collection (ATCC); CRL-2865] according to protocols provided by ATCC with the modification of Dulbecco’s Modified Eagle Media (DMEM) as the cell culture media instead of Roswell Park Memorial Institute (RPMI) media. […] All assays were run in 96-well plates and luminescence was detected using a BMG Fluostar Omega luminometer (BMG Labtech) following 24-h exposure. […] Cellular cytotoxicity across the dosing range was determined for CV-1 cells utilizing the 3-(4,5-dimethylthiazol-2-yl)-2,5-diphenyltetrazolium bromide (MTT) dye ([Mosmann 1983]). HFPO-DA was analyzed using n=2–3 biological replicate assay plates (i.e., unique cell passages) with four technical replicates per treatment per plate. […]

The structures appear in SMILES notation.

Consider `O=C(O)C(F)(OC(F)(F)C(F)(F)C(F)(F)F)C(F)(F)F` (centres unmarked) [HFPO-DA, Hexafluoropropylene oxide dimer acid], for which, where the note is “100 pM to 100 μM”, the glucocorticoid receptor agonism result is “no androgen or glucocorticoid receptor agonism”. The “glucocorticoid receptor antagonism, reduction in luciferase expression” value (100 μM, versus 1 nM Dex) was found to be 28±3%.

The values above are taken from paper PMC6768323, “Adverse Maternal, Fetal, and Postnatal Effects of Hexafluoropropylene Oxide Dimer Acid (GenX) from Oral Gestational Exposure in Sprague-Dawley Rats” (Environmental Health Perspectives, 2019).
